From PubChem BioAssay AID248 (DTP/NCI, 2004)
Values joined by “and” are separate entries in the source; they are usually repeats but may differ in a detail not shown here. Equal values may be shown once. Inconclusive results and toxic doses are left out. Cut-off read from the data, not from the text of the source: active = T/C of 150% or more; inactive = T/C below 125%.

Test system: L1210 leukemia ip in BDF1 mice, survival T/C
Experiment: NCI In Vivo Anticancer Drug Screen. Data for tumor model L1210 Leukemia (intraperitoneal) in B6D2F1 (BDF1) mice
Conditions: endpoint: mean survival time, higher = longer survival
Outline: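 In this screen, tumor-bearing mice given compound are compared to those given vehicle, and their survival values are reported as a treated-to-control quotient.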

[1] = dose: 100.0 mg/kg/injection, schedule: Q01DX009 (ip), vehicle: acetone
[2] = dose: 100.0 mg/kg/injection, schedule: Q04DX003 (ip), vehicle: acetone
[3] = dose: 200.0 mg/kg/injection, schedule: Q01DX009 (ip), vehicle: acetone
[4] = dose: 200.0 mg/kg/injection, schedule: Q04DX003 (ip), vehicle: acetone
[5] = dose: 400.0 mg/kg/injection, schedule: Q04DX003 (ip), vehicle: acetone
[6] = dose: 100.0 mg/kg/injection, schedule: Q01DX001 (ip), vehicle: saline
[7] = dose: 200.0 mg/kg/injection, schedule: Q01DX001 (ip), vehicle: saline
[8] = dose: 400.0 mg/kg/injection, schedule: Q01DX001 (ip), vehicle: saline
[9] = dose: 100.0 mg/kg/injection, schedule: Q04DX003 (ip), vehicle: saline
[10] = dose: 200.0 mg/kg/injection, schedule: Q04DX003 (ip), vehicle: saline
[11] = dose: 400.0 mg/kg/injection, schedule: Q04DX003 (ip), vehicle: saline
[12] = dose: 100.0 mg/kg/injection, schedule: Q04DX003 (ip), vehicle: saline with Tween-80
[13] = dose: 200.0 mg/kg/injection, schedule: Q04DX003 (ip), vehicle: saline with Tween-80
[14] = dose: 400.0 mg/kg/injection, schedule: Q04DX003 (ip), vehicle: saline with Tween-80

Measured: T/C

CN(C)CCSC1=CC(=O)c2ccccc2C1=O
inactive: dose: 0.78 mg/kg/injection, schedule: Q01DX009 (ip), vehicle: water 91 % of control | dose: 1.56 mg/kg/injection, schedule: Q01DX009 (ip), vehicle: water 92 % of control

CCOC(=O)CNc1ccc(C(=O)OCC)s1
inactive: dose: 31.25 mg/kg/injection, schedule: Q01DX009 (ip), vehicle: acetone 98 % of control | dose: 62.5 mg/kg/injection, schedule: Q01DX009 (ip), vehicle: acetone 100 % of control | dose: 125.0 mg/kg/injection, schedule: Q01DX009 (ip), vehicle: acetone 96 % of control | dose: 190.0 mg/kg/injection, schedule: Q01DX009 (ip), vehicle: saline 94 % of control | dose: 285.0 mg/kg/injection, schedule: Q01DX009 (ip), vehicle: saline 88 % of control

COC(=O)C1=COC(C)C2CN3CCc4c([nH]c5ccccc45)C3CC12 (stereo not drawn)
inactive: dose: 25.0 mg/kg/injection, schedule: Q04DX003 (ip), vehicle: Klucel (hydroxypropylcellulose) (HPC) 96 % of control | dose: 50.0 mg/kg/injection, schedule: Q04DX003 (ip), vehicle: Klucel (hydroxypropylcellulose) (HPC) 98 % of control | dose: 100.0 mg/kg/injection, schedule: Q04DX002 (ip), vehicle: Klucel (hydroxypropylcellulose) (HPC) 98 % of control and 95 % of control | dose: 100.0 mg/kg/injection, schedule: Q04DX003 (ip), vehicle: Klucel (hydroxypropylcellulose) (HPC) 98 % of control | dose: 200.0 mg/kg/injection, schedule: Q04DX002 (ip), vehicle: Klucel (hydroxypropylcellulose) (HPC) 91 % of control and 102 % of control | dose: 200.0 mg/kg/injection, schedule: Q04DX003 (ip), vehicle: Klucel (hydroxypropylcellulose) (HPC) 95 % of control | dose: 400.0 mg/kg/injection, schedule: Q04DX002 (ip), vehicle: Klucel (hydroxypropylcellulose) (HPC) 87 % of control and 106 % of control | dose: 400.0 mg/kg/injection, schedule: Q04DX003 (ip), vehicle: Klucel (hydroxypropylcellulose) (HPC) 100 % of control

O=C1C(Cl)CCCCC1Cl (stereo not drawn)
inactive: [1] 93 % of control | [2] 111 % of control | [3] 91 % of control | [4] 111 % of control | [5] 92 % of control

C[C@]12CCC(=O)C[C@H]1CC[C@@H]1[C@@H]2CC[C@@]2(C)[C@H]1CC[C@]2(C)O
inactive: dose: 50.0 mg/kg/injection, schedule: Q01DX Z (sc), vehicle: steriod suspending solution 98 % of control | dose: 100.0 mg/kg/injection, schedule: Q01DX Z (sc), vehicle: steriod suspending solution 98 % of control | dose: 200.0 mg/kg/injection, schedule: Q01DX Z (sc), vehicle: steriod suspending solution 101 % of control | dose: 400.0 mg/kg/injection, schedule: Q01DX Z (sc), vehicle: steriod suspending solution 98 % of control

OC1CCCCC1[n+]1ccccc1 (stereo not drawn) (tested in a mixture with another compound)
inactive: [6] 103 % of control | [7] 88 % of control | [8] 101 % of control

O=C(CCN1CC1)N1CCOCC1
inactive: [9] 108 % of control | [10] 100 % of control | [11] 113 % of control

CC(Br)C(=O)Nc1ccccc1 (stereo not drawn)
inactive: dose: 100.0 mg/kg/injection, schedule: Q01DX009 (ip), vehicle: saline with Tween-80 93 % of control | [12] 101 % of control | dose: 200.0 mg/kg/injection, schedule: Q01DX009 (ip), vehicle: saline with Tween-80 103 % of control | [13] 95 % of control | dose: 400.0 mg/kg/injection, schedule: Q01DX009 (ip), vehicle: saline with Tween-80 90 % of control | [14] 95 % of control

ClC12CC3CC(CC(C3)C1)C2
inactive: [1] 92 % of control | [2] 91 % of control | [3] 95 % of control and 91 % of control | [4] 98 % of control | dose: 400.0 mg/kg/injection, schedule: Q01DX009 (ip), vehicle: acetone 93 % of control | [5] 88 % of control

CSc1nc2ncnn2c(=O)[nH]1
inactive: dose: 50.0 mg/kg/injection, schedule: Q04DX003 (ip), vehicle: saline 96 % of control | [9] 94 % of control | [10] 100 % of control | [11] 92 % of control

CCCC(=O)CC(=O)CC(C)C
inactive: dose: 50.0 mg/kg/injection, schedule: Q01DX001 (ip), vehicle: saline 100 % of control | [6] 94 % of control | [7] 107 % of control | [8] 94 % of control

OC(CC(O)(C(F)(F)F)C(F)(F)F)c1cccs1 (stereo not drawn)
inactive: [12] 106 % of control | [13] 100 % of control | [14] 101 % of control
